Holding throughout (assay): CDNB conjugation assay, absorbance at […] nm
What all share (format): biochemical

The target in assay [1] is T1, rDdGSTA2 (Dictyostelium discoideum, UniProt Q556G3).
T1 construct: gene gsta2-1; purified recombinant
T1 sequence (Q556G3 2-198): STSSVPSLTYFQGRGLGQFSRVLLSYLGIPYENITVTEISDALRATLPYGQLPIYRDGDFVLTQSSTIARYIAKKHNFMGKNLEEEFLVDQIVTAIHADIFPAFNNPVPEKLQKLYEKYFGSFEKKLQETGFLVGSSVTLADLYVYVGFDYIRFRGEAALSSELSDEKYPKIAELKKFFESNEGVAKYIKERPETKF
The note with it: with GSH, 25°C.

The next assay deals with T2, rDdGSTA3 (Dictyostelium discoideum, UniProt Q54VI4).
T2 construct: gene gsta3; purified recombinant
T2 sequence (Q54VI4 2-204): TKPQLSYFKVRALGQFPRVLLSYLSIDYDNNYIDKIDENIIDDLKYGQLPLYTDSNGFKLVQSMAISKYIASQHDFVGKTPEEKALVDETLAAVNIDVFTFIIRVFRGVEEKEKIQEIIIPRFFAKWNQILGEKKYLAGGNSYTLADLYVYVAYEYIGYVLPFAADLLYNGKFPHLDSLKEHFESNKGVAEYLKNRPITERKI
Particulars: with GSH, 25°C.

The target in assay [2] is T1, rDdGSTA2. Particulars: GSH and CDNB as substrates, 25°C; mode not determined; authors caution that thymoquinone may also bind GSH, CDNB or product.

SMILES strings stand for the structures.

We go through two molecules from PMC9977050, “Thymoquinone effect on the Dictyostelium discoideum model correlates with functional roles for glutathione S-transferases in eukaryotic proliferation, chemotaxis, and development” (PLOS ONE, 2023).

For `O=[N+]([O-])c1ccc(Cl)c([N+](=O)[O-])c1` [CDNB, 1-chloro-2,4-dinitrobenzene], the “CDNB conjugation assay, absorbance at 340 nm” value on rDdGSTA2 [1] is on record as “CDNB activity assays of purified, recombinant GSTs (rDdGSTA2, rDdGSTA3) were conducted”; at rDdGSTA3, “CDNB activity assays of purified, recombinant GSTs (rDdGSTA2, rDdGSTA3) were conducted”. As for `CC1=CC(=O)C(C(C)C)=CC1=O` [thymoquinone, 2-isopropyl-5-methylbenzo-1,4-quinone], on rDdGSTA2 [2], the “% reduction of GS-DNB conjugate at 0.75 μM” value is 61%.
